Source: patent US9108944B2, “Androgen receptor modulators and uses thereof” (ARAGON PHARMACEUTICALS, INC., priority 2010, dated 2015)

Each compound was assayed against T1, AR-VP16 (Homo sapiens, UniProt P10275) (assay: AR-VP16 DNA Binding Assay, antagonist mode (HepG2 cells, 0.1 nM R1881)).
T1 sequence (P10275 560-920 limits assumed): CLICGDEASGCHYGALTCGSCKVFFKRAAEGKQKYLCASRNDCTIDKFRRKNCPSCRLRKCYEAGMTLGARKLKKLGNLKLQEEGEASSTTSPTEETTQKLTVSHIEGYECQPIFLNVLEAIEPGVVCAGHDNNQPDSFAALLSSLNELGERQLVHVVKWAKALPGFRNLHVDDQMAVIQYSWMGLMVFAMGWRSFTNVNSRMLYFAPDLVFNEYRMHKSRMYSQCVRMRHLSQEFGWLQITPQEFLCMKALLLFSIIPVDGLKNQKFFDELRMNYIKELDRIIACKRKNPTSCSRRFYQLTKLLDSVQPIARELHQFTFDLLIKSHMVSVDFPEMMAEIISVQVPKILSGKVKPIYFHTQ
Assay type: cell-based
Experimental: Cells were transiently transfected using Lipofectin (Life Technologies) according to the manufacturer's protocol. […] Transfected cells were incubated overnight then treated with ligand. […] For antagonist assays, the compounds were serially diluted and 50 μL of compound with RPMI supplemented with charcoal stripped serum plus methyltrienolone (R1881) were added to the cells. The final R1881 concentration used in the antagonist assays was 0.1 nM. Following 48 hour incubation the medium was removed and the cells were lysed in 40 μL of lysis buffer (25 mM Tris Phosphate, 2 mM CDTA, 10% Glycerol, 0.5% Triton X-100, 2 mM DTT).
For `CNC(=O)c1ccc(N2C(=S)N(c3cnc(C#N)c(C)c3)C(=O)C2(C)C)cc1F` [Compound 47, 4-(3-(6-Cyano-5-methylpyridin-3-yl)-5,5-dimethyl-4-oxo-2-thioxoimidazolidin-1-yl)-2-fluoro-N-methylbenzamide], the IC50 was less than 1000 nM.
In the case of `N#Cc1ncc(N2C(=O)C3(CCC3)N(c3ccc(-c4cccnc4)cc3)C2=S)cc1C(F)(F)F` [Compound 17, 5-(8-Oxo-5-(4-(pyridin-3-yl)phenyl)-6-thioxo-5,7-diazaspiro[3.4]octan-7-yl)-3-(trifluoromethyl)picolinonitrile], the IC50 is reported as less than 1000 nM.
Work on `CN1CCN(CCOc2ccc(N3C(=S)N(c4cnc(C#N)c(C(F)(F)F)c4)C(=O)C34CCC4)c(F)c2)CC1` [Compound 182, 5-(5-(2-Fluoro-4-(2-(4-methylpiperazin-1-yl)ethoxy)phenyl)-8-oxo-6-thioxo-5,7-diazaspiro[3.4]octan-7-yl)-3-(trifluoromethyl)picolinonitrile] yielded an IC50 of less than 1000 nM.
Compound `CC(C)CCNC(=O)c1ccc(N2C(=S)N(c3cnc(C#N)c(C(F)(F)F)c3)C(=O)C23CCC3)cc1F` [Compound 282, 4-(7-(6-Cyano-5-(trifluoromethyl)pyridin-3-yl)-8-oxo-6-thioxo-5,7-diazaspiro[3.4]octan-5-yl)-2-fluoro-N-isopentylbenzamide] has an IC50 of less than 1000 nM.
Compound `N#Cc1ccc(N2C(=O)C3(CCC3)N(c3ccc(OCCc4ccccn4)c(F)c3)C2=S)c2cccnc12` [Compound 172, 5-(5-(3-Fluoro-4-(2-(pyridin-2-yl)ethoxy)phenyl)-8-oxo-6-thioxo-5,7-diazaspiro[3.4]octan-7-yl)quinoline-8-carbonitrile] has an IC50 of less than 1000 nM.
`N#Cc1ncc(N2C(=O)C3(CCC3)N(c3ccc(Oc4ncccn4)cc3)C2=S)cc1C(F)(F)F` [Compound 206, 5-(8-Oxo-5-(4-(pyrimidin-2-yloxy)phenyl)-6-thioxo-5,7-diazaspiro[3.4]octan-7-yl)-3-(trifluoromethyl)picolinonitrile] showed an IC50 of less than 1000 nM.
`CC(C)(O)CNC(=O)c1ccc(N2C(=S)N(c3cnc(C#N)c(C(F)(F)F)c3)C(=O)C23CCC3)cc1F` [Compound 285, 4-(7-(6-Cyano-5-(trifluoromethyl)pyridin-3-yl)-8-oxo-6-thioxo-5,7-diazaspiro[3.4]octan-5-yl)-2-fluoro-N-(2-hydroxy-2-methylpropyl)benzamide] showed an IC50 greater than 1000 nM.
`CN(Cc1ccncc1)Cc1ccc(N2C(=S)N(c3cnc(C#N)c(C(F)(F)F)c3)C(=O)C23CCC3)cc1` [Compound 92, 5-(5-(4-((Methyl(pyridin-4-ylmethyl)amino)methyl)phenyl)-8-oxo-6-thioxo-5,7-diazaspiro[3.4]octan-7-yl)-3-(trifluoromethyl)picolinonitrile] was tested, and the IC50 was less than 1000 nM.
Compound `CN1CCN(CCCc2ccc(N3C(=S)N(c4cnc(C#N)c(C(F)(F)F)c4)C(=O)C34CCC4)cc2)CC1` [Compound 124, 5-(5-(4-(3-(4-Methylpiperazin-1-yl)propyl)phenyl)-8-oxo-6-thioxo-5,7-diazaspiro[3.4]octan-7-yl)-3-(trifluoromethyl)picolinonitrile] has an IC50 of less than 1000 nM.
`Cc1cc(N2C(=O)C3(CCC3)N(c3ccc(C4CCOCC4)cc3)C2=S)cnc1C#N` [Compound 112, 3-Methyl-5-(8-oxo-5-(4-(tetrahydro-2H-pyran-4-yl)phenyl)-6-thioxo-5,7-diazaspiro[3.4]octan-7-yl)picolinonitrile] showed an IC50 of less than 1000 nM.
In the case of `CNC(=O)c1ccc(N2C(=S)N(c3cnc(C#N)c(Cl)c3)C(=O)C23CCC3)cc1F` [Compound 58, 4-(7-(5-Chloro-6-cyanopyridin-3-yl)-8-oxo-6-thioxo-5,7-diazaspiro[3.4]octan-5-yl)-2-fluoro-N-methylbenzamide], the IC50 is reported as less than 1000 nM.
With `Cc1cc(N2C(=O)C3(CCC3)N(c3ccc(C(=O)Nc4ccnn4C)c(F)c3)C2=S)cnc1C#N` [Compound 302, 4-(7-(6-Cyano-5-methylpyridin-3-yl)-8-oxo-6-thioxo-5,7-diazaspiro[3.4]octan-5-yl)-2-fluoro-N-(1-methyl-1H-pyrazol-5-yl)benzamide] the IC50 was less than 1000 nM.
In the case of `Cc1cc(N2C(=O)C3(CCC3)N(c3ccc(C(=O)Nc4ccc(F)cc4)c(F)c3)C2=S)cnc1C#N` [Compound 299, 4-(7-(6-Cyano-5-methylpyridin-3-yl)-8-oxo-6-thioxo-5,7-diazaspiro[3.4]octan-5-yl)-2-fluoro-N-(4-fluorophenyl)benzamide], the IC50 is reported as less than 1000 nM.
With `N#Cc1ncc(N2C(=O)C3(CCC3)N(c3ccc(Br)c(F)c3)C2=S)cc1C(F)(F)F` [Compound 4, 5-(5-(4-Bromo-3-fluorophenyl)-8-oxo-6-thioxo-5,7-diazaspiro[3.4]octan-7-yl)-3-(trifluoromethyl)picolinonitrile] the IC50 was less than 1000 nM.
`N#Cc1ncc(N2C(=O)C3(CCC3)N(c3ccc(OCCN4CCCC4)c(F)c3)C2=S)cc1C(F)(F)F` [Compound 127, 5-(5-(3-Fluoro-4-(2-(pyrrolidin-1-yl)ethoxy)phenyl)-8-oxo-6-thioxo-5,7-diazaspiro[3.4]octan-7-yl)-3-(trifluoromethyl)picolinonitrile] was tested, and the IC50 was less than 1000 nM.
Compound `N#Cc1ncc(N2C(=O)C3(CCC3)N(c3ccccc3)C2=S)cc1C(F)(F)F` [Compound 48, 5-(8-Oxo-5-phenyl-6-thioxo-5,7-diazaspiro[3.4]octan-7-yl)-3-(trifluoromethyl)picolinonitrile] has an IC50 of less than 1000 nM.
`N#Cc1ncc(N2C(=O)C3(CCC3)N(c3ccc(OCCN4CCCCC4)c(F)c3)C2=S)cc1C(F)(F)F` [Compound 177, 5-(5-(3-Fluoro-4-(2-(piperidin-1-yl)ethoxy)phenyl)-8-oxo-6-thioxo-5,7-diazaspiro[3.4]octan-7-yl)-3-(trifluoromethyl)picolinonitrile] was tested, and the IC50 was less than 1000 nM.
Compound `CNC(=O)CCCc1ccc(N2C(=S)N(c3cnc(C#N)c(C(F)(F)F)c3)C(=O)C23CCC3)cc1` [Compound 230, 4-(4-(7-(6-Cyano-5-(trifluoromethyl)pyridin-3-yl)-8-oxo-6-thioxo-5,7-diazaspiro[3.4]octan-5-yl)phenyl)-N-methylbutanamide] has an IC50 of less than 1000 nM.
Work on `Cc1cc(N2C(=O)C3(CCC3)N(c3ccc(C(=O)NCc4ccccc4)c(F)c3)C2=S)cnc1C#N` [Compound 273, N-Benzyl-4-(7-(6-cyano-5-methylpyridin-3-yl)-8-oxo-6-thioxo-5,7-diazaspiro[3.4]octan-5-yl)-2-fluorobenzamide] yielded an IC50 of less than 1000 nM.
For `COCCOc1ccc(N2C(=S)N(c3cnc(C#N)c(C(F)(F)F)c3)C(=O)C23CCC3)c(F)c1` [Compound 181, 5-(5-(2-Fluoro-4-(2-methoxyethoxy)phenyl)-8-oxo-6-thioxo-5,7-diazaspiro[3.4]octan-7-yl)-3-(trifluoromethyl)picolinonitrile], the IC50 was less than 1000 nM.
Compound `N#Cc1ncc(N2C(=O)C3(CCC3)N(c3cccc(CO)c3)C2=S)cc1C(F)(F)F` [Compound 67, 5-(5-(3-(Hydroxymethyl)phenyl)-8-oxo-6-thioxo-5,7-diazaspiro[3.4]octan-7-yl)-3-(trifluoromethyl)picolinonitrile] has an IC50 of less than 1000 nM.
Compound `CN1CCC(Oc2ccc(N3C(=S)N(c4cnc(C#N)c(C(F)(F)F)c4)C(=O)C3(C)C)cc2)CC1` [Compound 196, 5-(4,4-Dimethyl-3-(4-((1-methylpiperidin-4-yl)oxy)phenyl)-5-oxo-2-thioxoimidazolidin-1-yl)-3-(trifluoromethyl)picolinonitrile] has an IC50 of less than 1000 nM.
`CNC(=O)c1ccc(N2C(=S)N(c3cnc(C#N)c(C)c3)C(=O)C23CCC3)cc1Cl` [Compound 108, 2-Chloro-4-(7-(6-cyano-5-methylpyridin-3-yl)-8-oxo-6-thioxo-5,7-diazaspiro[3.4]octan-5-yl)-N-methylbenzamide] showed an IC50 of less than 1000 nM.
With `N#Cc1ccc(N2C(=S)N(c3cnc(C#N)c(C(F)(F)F)c3)C(=O)C23CCC3)cc1F` [Compound 56, 5-(5-(4-Cyano-3-fluorophenyl)-8-oxo-6-thioxo-5,7-diazaspiro[3.4]octan-7-yl)-3-(trifluoromethyl)picolinonitrile] the IC50 was less than 1000 nM.
`N#Cc1ncc(N2C(=O)C3(CCC3)N(c3c(F)ccc(F)c3F)C2=S)cc1C(F)(F)F` [Compound 75, 5-(8-Oxo-6-thioxo-5-(2,3,6-trifluorophenyl)-5,7-diazaspiro[3.4]octan-7-yl)-3-(trifluoromethyl)picolinonitrile] gave an IC50 of less than 1000 nM.
With `CNC(=O)c1ccc(N2C(=S)N(c3ccc(C#N)c4ccccc34)C(=O)C23CCC3)cc1F` [Compound 95, 4-(7-(4-Cyanonaphthalen-1-yl)-8-oxo-6-thioxo-5,7-diazaspiro[3.4]octan-5-yl)-2-fluoro-N-methylbenzamide] the IC50 was less than 1000 nM.
For `CC(=O)N1CCN(CCOc2ccc(N3C(=S)N(c4cnc(C#N)c(C(F)(F)F)c4)C(=O)C34CCC4)cc2F)CC1` [Compound 202, 5-(5-(4-(2-(4-Acetylpiperazin-1-yl)ethoxy)-3-fluorophenyl)-8-oxo-6-thioxo-5,7-diazaspiro[3.4]octan-7-yl)-3-(trifluoromethyl)picolinonitrile], the IC50 was less than 1000 nM.
`Cc1cc(N2C(=O)C3(CCC3)N(c3ccc(OCCN4CCN(CC(F)(F)F)CC4)cc3)C2=S)cnc1C#N` [Compound 199, 3-Methyl-5-(8-oxo-6-thioxo-5-(4-(2-(4-(2,2,2-trifluoroethyl)piperazin-1-yl)ethoxy)phenyl)-5,7-diazaspiro[3.4]octan-7-yl)picolinonitrile] was tested, and the IC50 was less than 1000 nM.
